From patent US11306101B2 (Celgene Corporation, priority 2019, dated 2022) come the findings set out here.

This assay addresses T1, CK1α (Homo sapiens, UniProt P48729+Q96SW2).
T1 construct: expressed in transfected cells
In words: CK1α ePL degradation assay in MDS-L cells. As to conditions: MDS-L cells expressing ePL-tagged CK1α; for DC50: concentration giving 50% CK1α degradation vs DMSO control; for Y: lowest measured CK1α level normalized to DMSO control. The format is cell-based. The procedure, abridged:
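MDS-L cells treated with compound in a 10-point, 3-fold series from 10 μM to 0.0005 μM at 37° C, 5% CO2 for the indicated times; CK1α measured by InCELL Hunter enzyme-fragment luminescence. Levels normalized to DMSO as percent of control; lowest level reached taken as Y value.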

Structures are written as SMILES.

T1 sequence (P48729 whole entry): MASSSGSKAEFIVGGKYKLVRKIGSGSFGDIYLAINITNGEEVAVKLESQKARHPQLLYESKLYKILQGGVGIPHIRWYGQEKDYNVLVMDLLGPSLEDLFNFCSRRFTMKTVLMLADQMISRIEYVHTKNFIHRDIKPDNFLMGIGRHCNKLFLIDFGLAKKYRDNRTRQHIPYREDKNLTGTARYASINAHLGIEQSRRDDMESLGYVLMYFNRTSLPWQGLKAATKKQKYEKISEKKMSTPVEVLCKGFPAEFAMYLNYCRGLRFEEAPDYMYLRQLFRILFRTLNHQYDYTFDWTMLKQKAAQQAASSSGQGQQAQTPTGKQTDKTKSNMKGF
T1 sequence (Q96SW2 whole entry): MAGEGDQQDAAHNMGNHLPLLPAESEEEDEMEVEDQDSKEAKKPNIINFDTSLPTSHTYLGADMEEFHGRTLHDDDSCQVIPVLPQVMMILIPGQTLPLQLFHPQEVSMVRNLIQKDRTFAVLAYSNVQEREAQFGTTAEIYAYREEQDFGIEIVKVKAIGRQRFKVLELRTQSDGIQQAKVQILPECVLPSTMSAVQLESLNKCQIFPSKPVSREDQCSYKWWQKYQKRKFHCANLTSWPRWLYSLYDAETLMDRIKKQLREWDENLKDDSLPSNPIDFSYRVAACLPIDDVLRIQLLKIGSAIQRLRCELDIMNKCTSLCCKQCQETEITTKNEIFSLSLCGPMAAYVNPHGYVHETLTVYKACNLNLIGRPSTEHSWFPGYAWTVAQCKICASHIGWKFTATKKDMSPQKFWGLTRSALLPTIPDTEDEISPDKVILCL
T1 sequence (Q16531 whole entry partner): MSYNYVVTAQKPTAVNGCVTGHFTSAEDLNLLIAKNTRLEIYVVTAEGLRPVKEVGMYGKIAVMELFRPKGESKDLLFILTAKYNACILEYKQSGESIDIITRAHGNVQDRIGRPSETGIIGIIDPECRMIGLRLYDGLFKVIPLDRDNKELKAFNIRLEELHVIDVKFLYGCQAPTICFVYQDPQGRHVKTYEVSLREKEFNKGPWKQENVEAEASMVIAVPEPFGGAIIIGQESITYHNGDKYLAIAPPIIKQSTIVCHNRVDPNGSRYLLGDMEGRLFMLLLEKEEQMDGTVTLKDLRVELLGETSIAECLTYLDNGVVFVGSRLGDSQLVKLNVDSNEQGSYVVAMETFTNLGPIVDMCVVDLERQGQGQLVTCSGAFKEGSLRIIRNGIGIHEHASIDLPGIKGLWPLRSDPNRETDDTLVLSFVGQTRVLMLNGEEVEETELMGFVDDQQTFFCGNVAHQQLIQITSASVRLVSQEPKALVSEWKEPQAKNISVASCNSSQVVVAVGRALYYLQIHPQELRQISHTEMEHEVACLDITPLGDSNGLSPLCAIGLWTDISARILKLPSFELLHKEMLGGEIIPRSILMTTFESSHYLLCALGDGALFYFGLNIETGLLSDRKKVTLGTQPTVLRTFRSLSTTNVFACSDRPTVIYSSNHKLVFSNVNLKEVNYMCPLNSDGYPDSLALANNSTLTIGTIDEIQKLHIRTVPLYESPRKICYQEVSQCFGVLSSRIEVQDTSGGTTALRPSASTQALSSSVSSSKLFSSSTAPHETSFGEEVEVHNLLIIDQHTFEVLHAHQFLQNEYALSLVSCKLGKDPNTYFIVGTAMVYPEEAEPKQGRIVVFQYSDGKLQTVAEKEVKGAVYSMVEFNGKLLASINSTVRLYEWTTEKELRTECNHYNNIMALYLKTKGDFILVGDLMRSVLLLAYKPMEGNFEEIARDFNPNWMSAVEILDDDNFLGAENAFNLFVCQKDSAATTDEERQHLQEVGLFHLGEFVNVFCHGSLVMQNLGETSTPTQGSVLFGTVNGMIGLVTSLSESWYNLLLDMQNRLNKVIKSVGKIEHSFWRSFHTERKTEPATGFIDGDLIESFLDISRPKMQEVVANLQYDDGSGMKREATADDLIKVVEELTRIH

What is called DC50 is the concentration giving 50% degradation. In the case of `O=C1CCC(N2Cc3cc(C(=O)NC(C4CCC5(CC4)CC(O)C5)C(F)(F)F)ccc3C2=O)C(=O)N1` (stereo not drawn) [Example 181, 2-(2,6-dioxopiperidin-3-yl)-1-oxo-N-(2,2,2-trifluoro-1-(2-hydroxyspiro[3.5]nonan-7-yl)ethyl)isoindoline-5-carboxamide], the DC50 fell in the range of 100 to 500 nM and the Y result is “* (a Y value (shown as *) of 0<Y≤20%)”.

Turning to `O=C1CC[C@@H](N2Cc3cc(C(=O)N[C@H](c4ncccc4Cl)C(F)(F)F)ccc3C2=O)C(=O)N1` [Example 182, N-((R)-1-(3-chloropyridin-2-yl)-2,2,2-trifluoroethyl)-2-((R)-2,6-dioxopiperidin-3-yl)-1-oxoisoindoline-5-carboxamide], the DC50 was < 100 nM and the Y entry is “* (a Y value (shown as *) of 0<Y≤20%)”.

With `O=C1CCC(N2Cc3c(ccc(C(=O)N[C@H](c4ncc(F)cc4Cl)C(F)(F)F)c3F)C2=O)C(=O)N1` (stereo partly drawn) [Example 183, N-((R)-1-(3-chloro-5-fluoropyridin-2-yl)-2,2,2-trifluoroethyl)-2-(2,6-dioxopiperidin-3-yl)-4-fluoro-1-oxoisoindoline-5-carboxamide], the DC50 is < 100 nM and the Y result was “* (a Y value (shown as *) of 0<Y≤20%)”.

With `O=C1CCC(N2Cc3cc(C(=O)N[C@H](c4ncc(Cl)cc4Cl)C(F)(F)F)ccc3C2=O)C(=O)N1` (stereo partly drawn) [Example 184, N-((R)-1-(3,5-dichloropyridin-2-yl)-2,2,2-trifluoroethyl)-2-(2,6-dioxopiperidin-3-yl)-1-oxoisoindoline-5-carboxamide], the DC50 is < 100 nM and the Y entry is reported as “* (a Y value (shown as *) of 0<Y≤20%)”.

Take `CN1CCN(Cc2ccc([C@@H](NC(=O)c3ccc4c(c3)CN(C3CCC(=O)NC3=O)C4=O)C(F)(F)F)cc2)CC1` (stereo partly drawn) [Example 185, 2-(2,6-dioxopiperidin-3-yl)-1-oxo-N-((R)-2,2,2-trifluoro-1-(4-((4-methylpiperazin-1-yl)methyl)phenyl)ethyl)isoindoline-5-carboxamide]: the DC50 lay within 100 to 500 nM and the Y entry is recorded as “* (a Y value (shown as *) of 0<Y≤20%)”.

For `CN(C)Cc1ccc([C@@H](NC(=O)c2ccc3c(c2F)CN(C2CCC(=O)NC2=O)C3=O)C(F)(F)F)cc1` (stereo partly drawn) [Example 186, N-((R)-1-(4-((dimethylamino)methyl)phenyl)-2,2,2-trifluoroethyl)-2-(2,6-dioxopiperidin-3-yl)-4-fluoro-1-oxoisoindoline-5-carboxamide], the DC50 is < 100 nM and the Y result is recorded as “* (a Y value (shown as *) of 0<Y≤20%)”.

On to `O=C1CCC(N2Cc3cc(C(=O)N[C@H](CC(F)(F)F)c4ccccc4)ccc3C2=O)C(=O)N1` (stereo partly drawn) [Example 187, 2-(2,6-dioxopiperidin-3-yl)-1-oxo-N-((R)-3,3,3-trifluoro-1-phenylpropyl)isoindoline-5-carboxamide], for which the DC50 was 100 to 500 nM and the Y entry is “** (a Y value (shown as**) of 20%<Y≤35%)”.

Turning to `O=C1CCC(N2Cc3cc(C(=O)N[C@H](c4ccc(CN5CC(F)(F)C5)cc4)C(F)(F)F)ccc3C2=O)C(=O)N1` (stereo partly drawn) [Example 188, N-((R)-1-(4-((3,3-difluoroazetidin-1-yl)methyl)phenyl)-2,2,2-trifluoroethyl)-2-(2,6-dioxopiperidin-3-yl)-1-oxoisoindoline-5-carboxamide], the DC50 lay in the range of 100 to 500 nM and the Y result is reported as “** (a Y value (shown as**) of 20%<Y≤35%)”.

With `O=C1CCC(N2Cc3cc(C(=O)N[C@H](c4ccc(CN5CCC5)cc4)C(F)(F)F)ccc3C2=O)C(=O)N1` (stereo partly drawn) [Example 189, N-((R)-1-(4-(azetidin-1-ylmethyl)phenyl)-2,2,2-trifluoroethyl)-2-(2,6-dioxopiperidin-3-yl)-1-oxoisoindoline-5-carboxamide], the DC50 is < 100 nM and the Y result is recorded as “* (a Y value (shown as *) of 0<Y≤20%)”.
